Measured values published in ChEMBL document CHEMBL3526058, “Investigating the enteroenteric recirculation of apixaban, a factor Xa inhibitor: administration of activated charcoal to bile duct-cannulated rats and dogs receiving an intravenous dose and use of drug transporter knockout rats” (Drug Metab Dispos, 2013).

Columns and labels:
[1] = Drug recovery in bile of bile duct-cannulated beagle dog at 1 mg/kg, iv administered as 5 mins infusion measured up to 72 hrs; format: ADME, organism-based, Canis lupus familiaris; parameters: dose 1 mg/kg, route intravenous; conditions: read-out: Drug recovery
[2] = Drug recovery in feces of bile duct-cannulated P-gp-knockout Sprague-Dawley rat at 2 mg/kg, iv measured up to 24 hrs; format: ADME, organism-based; parameters: dose 2 mg/kg, route intravenous; conditions: read-out: Drug recovery
[3] = Clearance in wild-type bile duct-cannulated Sprague-Dawley rat at 2 mg/kg, iv; format: ADME, organism-based; parameters: dose 2 mg/kg, route intravenous; conditions: in vivo
Rattus norvegicus [4] = test: Renal clearance in wild-type 30 mins activated charcoal pre-treated bile duct-cannulated Sprague-Dawley rat at 2 mg/kg, iv followed by activated charcoal administration 5 to 180 mins post compound dosing relative to total clearance; format: ADME, organism-based, Kidney; parameters: dose 2 mg/kg, route intravenous; conditions: in vivo
[5] = Drug recovery in feces of Sprague-Dawley rat at 2 mg/kg, iv measured up to 168 hrs; format: ADME, organism-based; parameters: dose 2 mg/kg, route intravenous; conditions: read-out: Drug recovery
Canis familiaris [6] = test: Clearance in bile duct-cannulated beagle dog at 1 mg/kg, iv administered as 5 mins infusion; format: ADME, organism-based, Canis lupus familiaris; parameters: dose 1 mg/kg, route intravenous; conditions: in vivo
Rattus norvegicus [7] = test: Metabolism and biliary clearance in wild-type bile duct-cannulated Sprague-Dawley rat at 2 mg/kg, iv relative to total clearance; format: ADME, organism-based; parameters: dose 2 mg/kg, route intravenous; conditions: in vivo
[8] = Cmax in wild-type 30 mins activated charcoal pre-treated bile duct-cannulated Sprague-Dawley rat at 2 mg/kg, iv followed by activated charcoal administration 5 to 180 mins post compound dosing; format: ADME, organism-based; parameters: dose 2 mg/kg, route intravenous; conditions: in vivo
[9] = Drug recovery in urine of bile duct-cannulated Sprague-Dawley rat at 2 mg/kg, iv administered 1 hr post GF-120918 treatment measured up to 48 hrs; format: ADME, organism-based; parameters: dose 2 mg/kg, route intravenous; conditions: with GF-120918, given 1 hr before the compound, read-out: Drug recovery
[10] = Drug recovery in urine of bile duct-cannulated P-gp-knockout Sprague-Dawley rat at 2 mg/kg, iv measured up to 24 hrs; format: ADME, organism-based; parameters: dose 2 mg/kg, route intravenous; conditions: read-out: Drug recovery
[11] = Drug recovery in bile of bile duct-cannulated P-gp-knockout Sprague-Dawley rat at 2 mg/kg, iv measured up to 24 hrs; format: ADME, organism-based; parameters: dose 2 mg/kg, route intravenous; conditions: read-out: Drug recovery
[12] = Drug recovery in bile of bile duct-cannulated Sprague-Dawley rat at 2 mg/kg, iv measured up to 24 hrs; format: ADME, organism-based; parameters: dose 2 mg/kg, route intravenous; conditions: read-out: Drug recovery
[13] = Drug recovery in urine of bile duct-cannulated beagle dog at 1 mg/kg, iv administered as 5 mins infusion followed by activated charcoal administration 10 to 420 mins post compound measured up to 72 hrs; format: ADME, organism-based, Canis lupus familiaris; parameters: dose 1 mg/kg, route intravenous; conditions: read-out: Drug recovery
[14] = Half life in wild-type bile duct-cannulated Sprague-Dawley rat at 2 mg/kg, iv; format: ADME, organism-based; parameters: dose 2 mg/kg, route intravenous; conditions: in vivo
Rattus norvegicus [15] = test: Intestinal clearance in P-gp-knockout Sprague-Dawley rat at 2 mg/kg, iv; format: ADME, organism-based; parameters: dose 2 mg/kg, route intravenous; conditions: in vivo
Rattus norvegicus [16] = test: Intestinal clearance in BCRP-knockout Sprague-Dawley rat at 2 mg/kg, iv relative to total clearance; format: ADME, organism-based; parameters: dose 2 mg/kg, route intravenous; conditions: in vivo
[17] = Mean residence time in P-gp-knockout Sprague-Dawley rat at 2 mg/kg, iv; format: ADME, organism-based; parameters: dose 2 mg/kg, route intravenous; conditions: in vivo
Canis familiaris [18] = test: Intestinal clearance in bile duct-cannulated beagle dog at 1 mg/kg, iv administered as 5 mins infusion; format: ADME, organism-based, Canis lupus familiaris; parameters: dose 1 mg/kg, route intravenous; conditions: in vivo
[19] = Half life in wild-type bile duct-cannulated Sprague-Dawley rat at 2 mg/kg, iv administered 0.125 hr post GF-120918 treatment; format: ADME, organism-based; parameters: dose 2 mg/kg, route intravenous; conditions: in vivo, with GF-120918
[20] = AUC (0 to infinity) in wild-type bile duct-cannulated Sprague-Dawley rat at 2 mg/kg, iv; format: ADME, organism-based; parameters: time infinity, dose 2 mg/kg, route intravenous; conditions: in vivo
[21] = Volume of distribution at steady state in BCRP-knockout Sprague-Dawley rat at 2 mg/kg, iv; format: ADME, organism-based; parameters: dose 2 mg/kg, route intravenous; conditions: in vivo, read-out: Vdss
[22] = Renal clearance in BCRP-knockout Sprague-Dawley rat at 2 mg/kg, iv; format: ADME, organism-based, Kidney; parameters: dose 2 mg/kg, route intravenous; conditions: in vivo
[23] = Volume of distribution at steady state in bile duct-cannulated beagle dog at 1 mg/kg, iv administered as 5 mins infusion followed by activated charcoal administration 10 to 420 mins post compound dosing; format: ADME, organism-based, Canis lupus familiaris; parameters: dose 1 mg/kg, route intravenous; conditions: in vivo, read-out: Vdss
Rattus norvegicus [24] = test: Metabolism and biliary clearance in BCRP-knockout Sprague-Dawley rat at 2 mg/kg, iv; format: ADME, organism-based, Bile; parameters: dose 2 mg/kg, route intravenous; conditions: in vivo
Canis familiaris [25] = test: AUC (0 to infinity) in bile duct-cannulated beagle dog at 1 mg/kg, iv administered as 5 mins infusion followed by activated charcoal administration 10 to 420 mins post compound dosing; format: ADME, organism-based, Canis lupus familiaris; parameters: time infinity, dose 1 mg/kg, route intravenous; conditions: in vivo
[26] = Drug recovery in feces of 30 mins activated charcoal pre-treated bile duct-cannulated Sprague-Dawley rat at 2 mg/kg, iv followed by activated charcoal administration 5 to 180 mins post compound dosing measured up to 48 hrs; format: ADME, organism-based; parameters: dose 2 mg/kg, route intravenous; conditions: read-out: Drug recovery

SMILES: COc1ccc(-n2nc(C(N)=O)c3c2[14C](=O)N(c2ccc(N4CCCCC4=O)cc2)CC3)cc1
- dose excreted [1]: 12.4%
- dose excreted at 24 h [2]: 24.9%
- clearance [3]: 23.3 mL/min/kg
- CL (Rattus norvegicus [4]): 39%
- dose excreted at 168 h [5]: 41.1%
- CL (Canis familiaris [6]): 0.667 mL/min/kg
- CL (Rattus norvegicus [7]): 28%
- Cmax [8]: 1640 ng/mL
- dose excreted [9]: 50.6%
- dose excreted at 24 h [10]: 44.3%
- dose excreted at 24 h [11]: 14.1%
- dose excreted at 24 h [12]: 10.7%
- dose excreted [13]: 8.1%
- half-life [14]: 1.2 h
- CL (Rattus norvegicus [15]): 3.67 mL/min/kg
- CL (Rattus norvegicus [16]): 37%
- MRT [17]: 0.8 h
- CL (Canis familiaris [18]): 0.287 mL/min/kg
- half-life [19]: 2.8 h
- AUC(0-inf) [20]: 1410 ng·h/mL
- Vd [21]: 1.8 L/kg
- CL renal [22]: 5 mL/min/kg
- Vd [23]: 0.2 L/kg
- CL (Rattus norvegicus [24]): 4.33 mL/min/kg
- AUC (Canis familiaris [25]): 5600 ng·h/mL
- dose excreted [26]: 28.8%
